# Measured values published in the SangsterLogP compilation.
# Assay: from Büchel, K. H., & Draber, W. (1969). Structure-activity relationship of photosynthesis inhibition by NH-acidic pi-excessive heteroaromatics. In H. Metzner (Ed.), Progress in Photosynthesis Research: …
# Conditions: pH 7.3
row,SMILES,logD
1,FC(F)(F)c1nc2nc3c(Cl)cc(Cl)cc3nc2[nH]1,5.18
2,FC(F)(F)c1nc2ncccc2[nH]1,1.38
3,FC(F)(F)c1nc2nc3cc(Cl)ccc3nc2[nH]1,3.91
4,FC(F)(F)c1nc2ncc(Cl)cc2[nH]1,2.46
5,FC(F)(F)c1nc2cnccc2[nH]1,0.94
6,FC(F)(F)c1nc2nc3ccccc3nc2[nH]1,3.08

# Assay: not given
# Conditions: not given
row,SMILES,logP
1,Cc1c(C)c(Cl)c2[nH]c(C(F)(F)F)nc2c1Cl,3.19
2,Cc1cc2nc[nH]c2cc1C,2.35
3,FC(F)(F)c1nc2c(Cl)c(Cl)ccc2[nH]1,3.49
4,FC(F)(F)c1nc2c(Cl)c(Cl)c(Cl)cc2[nH]1,3.87
5,FC(F)(F)c1nc2cc(Br)ccc2[nH]1,3.57
6,O=[N+]([O-])c1ccc2[nH]c(C(F)(F)F)nc2c1,2.68
7,FC(F)(F)c1nc2c(Cl)cc(Cl)cc2[nH]1,3.49
8,CCCCc1ccc2[nH]c(C(F)(F)F)nc2c1,4.27
9,Clc1nc(Cl)c(Cl)[nH]1,1.85
10,FC(F)(F)c1nc2c(Cl)c(Cl)cc(Cl)c2[nH]1,3.78
11,FC(F)(F)c1nc2c(Cl)cccc2[nH]1,2.93
12,FC(F)(F)c1nc2ccccc2[nH]1,2.67
13,CCCCCCCCc1ccc2[nH]c(C(F)(F)F)nc2c1,4.38
14,FC(F)(F)c1nc2cc(Cl)ccc2[nH]1,3.39
15,FC(F)(F)c1nc2c(Br)c(Br)c(Br)c(Br)c2[nH]1,4.81
16,FC(F)(F)c1nc2c(Cl)c(Cl)c(Cl)c(Cl)c2[nH]1,3.97
17,FC(F)(F)c1nc2cc(Cl)c(Cl)cc2[nH]1,3.99
18,CSc1nc2cc(Cl)ccc2[nH]1,3.22
19,FC(F)(F)c1nc2c(Br)c(Br)c(Br)cc2[nH]1,4.08
20,Brc1nn[nH]c1Br,2.44
21,Ic1nc(I)c(I)[nH]1,2.78
22,Brc1nc(Br)c2[nH]c(Br)nc2n1,3.08
23,FC(F)(F)c1nc2cc(Br)c(Br)cc2[nH]1,4.15
24,Brc1n[nH]c(Br)n1,2.24
25,FC(F)(F)c1nc2c(Cl)ccc(Cl)c2[nH]1,2.87
